The source of these data is patent publication US9018238B2, “Inhibitor of casein kinase 1δ and casein kinase 1ε” (Pharmadesign, Inc., priority 2009, dated 2015).

Each structure is given as a SMILES string.

The target in test [1] is T1, human recombinant casein kinase 1δ (Homo sapiens, UniProt P48730).
T1 construct: purchased INVITROGEN PV3665
The test can be described thus: Casein kinase 1δ inhibition assay (Z'-LYTE Ser/Thr 11 Peptide). The test is classed as biochemical. The settings on record: 0.3 μg/ml compound, 3.0 μg/ml enzyme, 1.0 μM peptide, 20 μM ATP; 15 min pre-reaction, 2 hours; read-out: Casein kinase 1δ inhibitory rate. As to the method:
The activity of the present compound to inhibit casein kinase 1δ and casein kinase 1ε was measured using human recombinant casein kinase 1δ (INVITROGEN; Cat No. PV3665) or casein kinase 1ε (INVITROGEN; Cat No. PV3500) as an enzyme source, and using Z′-LYTE Ser/Thr 11 Peptide (INVITROGEN; Cat No. PV3671) as a phosphorylation substrate. The compositions (final concentrations) applied during the inhibitory activity measurement assays are as follows.
Assay of Casein Kinase 1δ
3.0 μg/ml casein kinase 1δ, 0.3 μg/ml the present compound, 1.0 μM peptide, 20 μM ATP, 50 mM HEPES (pH 7.4), 10 mM MgCl2, 0.01% Brij-35, and 0.5% DMSO
(§1) The present compound had previously been reacted with the enzyme at room temperature for 15 minutes. Two hours after completion of the reaction, the remaining phosphorylation activity was measured using Z′-LYTE Kinase Assay Kit-Ser/Thr 11 Peptide (INVITROGEN; Cat No. PV3670).
(§2) The inhibitory rate of the present compound was calculated with respect to the phosphorylation activity of each of casein kinase 1δ and casein kinase 1ε in a case in which no such compounds were added. Tables 1 to 4 show the inhibitory rate (%) of each compound.

The target in test [2] is T2, human recombinant casein kinase 1ε (Homo sapiens, UniProt P49674).
T2 construct: purchased INVITROGEN PV3500
T2 sequence (P49674 whole entry): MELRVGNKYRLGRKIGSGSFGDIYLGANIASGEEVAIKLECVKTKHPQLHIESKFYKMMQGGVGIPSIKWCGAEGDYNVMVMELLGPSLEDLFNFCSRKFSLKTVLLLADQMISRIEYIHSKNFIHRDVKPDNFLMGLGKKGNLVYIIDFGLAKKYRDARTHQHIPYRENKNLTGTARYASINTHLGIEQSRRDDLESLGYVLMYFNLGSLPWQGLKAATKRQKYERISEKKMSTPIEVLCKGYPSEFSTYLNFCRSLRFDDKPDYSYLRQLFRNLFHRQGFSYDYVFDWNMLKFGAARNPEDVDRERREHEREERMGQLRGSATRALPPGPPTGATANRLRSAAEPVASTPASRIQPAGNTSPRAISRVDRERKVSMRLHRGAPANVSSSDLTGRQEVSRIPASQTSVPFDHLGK
The test can be described thus: Casein kinase 1ε inhibition assay (Z'-LYTE Ser/Thr 11 Peptide). The settings on record: 0.3 μg/ml compound, 0.5 μg/ml enzyme, 1.0 μM peptide, 20 μM ATP; 15 min pre-reaction, 2 hours; read-out: Casein kinase 1ε inhibitory rate. It counts as biochemical. As to the method:
The activity of the present compound to inhibit casein kinase 1δ and casein kinase 1ε was measured using human recombinant casein kinase 1δ (INVITROGEN; Cat No. PV3665) or casein kinase 1ε (INVITROGEN; Cat No. PV3500) as an enzyme source, and using Z′-LYTE Ser/Thr 11 Peptide (INVITROGEN; Cat No. PV3671) as a phosphorylation substrate. The compositions (final concentrations) applied during the inhibitory activity measurement assays are as follows. […]
as §1, §2

Test [3] has as its system rats. The note with it: subcutaneous administration; cited from earlier work.
Test [4] deals with human pancreatic cancer cell line transplanted into the subcutis of a mouse. The settings on record: cited from earlier work.
Test [5] concerns N2A cells (N2A-APP695 cells). The settings on record: N2A-APP695 cells excessively expressing constitutively active casein kinase 1ε; cited from earlier work.
For test [6], the system named is human pancreatic cancer cell line. The settings on record: human pancreatic cancer cell line in vitro; cited from earlier work.

T1 sequence (P48730 whole entry): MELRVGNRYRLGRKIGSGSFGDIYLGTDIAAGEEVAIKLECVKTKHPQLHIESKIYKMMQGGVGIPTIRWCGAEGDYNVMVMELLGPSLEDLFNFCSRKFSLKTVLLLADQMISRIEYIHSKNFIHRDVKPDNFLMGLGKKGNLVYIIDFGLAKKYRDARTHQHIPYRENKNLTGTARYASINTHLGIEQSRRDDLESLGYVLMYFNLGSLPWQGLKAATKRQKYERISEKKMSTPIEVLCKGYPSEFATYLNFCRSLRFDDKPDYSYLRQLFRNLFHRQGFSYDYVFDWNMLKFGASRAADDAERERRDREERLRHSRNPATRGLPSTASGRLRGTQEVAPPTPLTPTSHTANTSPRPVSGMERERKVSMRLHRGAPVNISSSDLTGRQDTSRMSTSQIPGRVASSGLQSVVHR

In the case of `O=C1OC(c2cccs2)=N/C1=C\c1csnn1` [Example 14, 4-((1,2,3-Thiadiazol-4-yl)methylene)-2-(2-thienyl)-5(4H)-oxazolone], the inhibition at 0.3 µg/mL in test [1] was 32.2%; in test [2], 19.2%.

On to `O=C1OC(c2cccs2)=N/C1=C\c1cncc(F)c1` [Example 3, 4-((5-Fluoro-3-pyridinyl)methylene)-2-(2-thienyl)-5(4H)-oxazolone], for which the inhibition at 0.3 µg/mL worked out at 87.4% in test [1] and 92.1% in test [2].

Consider `O=C1OC(c2cccs2)=N/C1=C\c1cc2c(cc1Cl)OCO2` [4-((6-Chloro-1,3-benzodioxol-5-yl)methylene)-2-(2-thienyl)-5(4R)-oxazolone], for which the figures for the inhibition at 0.3 µg/mL in test [1] and in test [2] were 74.3% and 97%, respectively.

Take `Nc1nccc(-c2c(-c3ccc(F)cc3)ncn2C2CCCCC2)n1` [PF-670462, 4-[3-cyclohexyl-5-(4-fluoro-phenyl)-3H-imidazol-4-yl]-pyrimidin-2-ylamine]: the “phase of circadian rhythm” value in test [3] is reported as “significantly delayed”.

For `COc1cncc(/C=C2\N=C(c3cccs3)OC2=O)c1` [Example 2, 4-((5-Methoxy-3-pyridinyl)methylene)-2-(2-thienyl)-5(4H)-oxazolone], the inhibition at 0.3 µg/mL turned out to be 91.1% in test [1] and 96.6% in test [2].

For `COc1ccc(/C=C2\N=C(c3cccs3)OC2=O)c(C)n1` [Example 18, 4-((6-Methoxy-2-methyl-3-pyridinyl)methylene)-2-(2-thienyl)-5(4H)-oxazolone], the inhibition at 0.3 µg/mL in test [1] amounted to 55.3%; in test [2], 32.8%.

Regarding `COCc1ccc(/C=C2\N=C(c3cccs3)OC2=O)o1` [Example 12, 4-((5-Methoxymethyl-2-furanyl)methylene)-2-(2-thienyl)-5(4H)-oxazolone], the inhibition at 0.3 µg/mL in test [1] is 29%; in test [2], 9%.

In the case of `Cn1cnc(/C=C2\N=C(c3cccs3)OC2=O)c1` [Example 10, 4-((1-Methyl-1H-imidazol-yl)methylene)-2-(2-thienyl)-5(4H)-oxazolone], the inhibition at 0.3 µg/mL in test [1] was found to be 37%; in test [2], 18.1%.

Turning to `COc1ccc(C2=N/C(=C\c3cccnc3)C(=O)O2)cc1Br` [2-(3-Bromo-4-methoxyphenyl)-4-(3-pyridinylmethylene)-5-(4H)-oxazolone], the values for the inhibition at 0.3 µg/mL in test [1] and in test [2] were 94.2% and 99.4%, respectively.

Take `COc1ccc(/C=C2\N=C(c3cccs3)OC2=O)cc1[N+](=O)[O-]` [4-((4-Methoxy-3-nitrophenyl)methylene)-2-(2-thienyl)-5(4H)-oxazolone]: the inhibition at 0.3 µg/mL in test [1] was determined as 91%; in test [2], 94.8%.

`O=C1OC(c2cccs2)=N/C1=C\c1ccc([N+](=O)[O-])c(Cl)c1` [4-((3-Chloro-4-nitrophenyl)methylene)-2-(2-thienyl)-5(4H)-oxazolone]: the inhibition at 0.3 µg/mL in test [1] worked out at 87.6%; in test [2], 97.6%.

Consider `O=C1OC(/C=C/c2ccccc2)=NC/1=C\c1cccnc1` [2-(2-phenylethenyl)-4-(3-pyridinylmethylene)-5(4H)-oxazolone], for which the inhibition at 0.3 µg/mL in test [1] worked out at 85%; in test [2] it was 83.4%.

`O=C1OC(c2cccs2)=N/C1=C\c1cccnc1F` [Example 4, 4-((2-Fluoro-3-pyridinyl)methylene)-2-(2-thienyl)-5(4H)-oxazolone]: the inhibition at 0.3 µg/mL is 65.6% in test [1] and 39.2% in test [2].

In the case of `Cn1cc(/C=C2\N=C(c3cccs3)OC2=O)cn1` [4-((1-Methyl-1H-pyrazol-4-yl)methylene)-2-(2-thienyl)-5(4H)-oxazolone], the inhibition at 0.3 µg/mL in test [1] came to 73.6%; in test [2], 48.8%.

Consider `COc1ccc(/C=C2\N=C(c3cccs3)OC2=O)cn1` [Example 5, 4-((6-Methoxy-3-pyridinyl)methylene)-2-(2-thienyl)-5(4H)-oxazolone], for which the inhibition at 0.3 µg/mL in test [1] came out at 86.3%; in test [2], 95.6%.

On to `O=C1OC(c2cccs2)=N/C1=C\c1cocn1` [Example 13, 4-((4-Oxazoyl)methylene)-2-(2-thienyl)-5(4H)-oxazolone], for which the inhibition at 0.3 µg/mL turned out to be 67.9% in test [1] and 32% in test [2].

Consider `COC(=O)c1ccc(/C=C2\N=C(c3cccs3)OC2=O)cc1` [Methyl 4-((5-oxo-2-(2-thienyl)oxazol-4(5H)-ylidene)methyl) benzoate], for which the inhibition at 0.3 µg/mL in test [1] was found to be 86.8%; in test [2] it was 95.1%.

Turning to `COc1ccc(/C=C2\N=C(c3cccs3)OC2=O)c(Cl)n1` [Example 19, 4-((2-Chloro-6-methoxy-3-pyridinyl)methylene)-2-(2-thienyl)-5(4H)-oxazolone], the inhibition at 0.3 µg/mL came to 76.1% in test [1] and 52.5% in test [2].

Regarding `Nc1ccn([C@@H]2O[C@H](CO)[C@@H](O)C2(F)F)c(=O)n1` [gemcitabine], in test [4], the “growth of tumor cells” value is given as “significant effect of suppressing the growth of tumor cells”.

In the case of `O=C1OC(c2cccs2)=N/C1=C\c1ccc([N+](=O)[O-])c(Br)c1` [4-((3-Bromo-4-nitrophenyl)methylene)-2-(2-thienyl)-5(4H)-oxazolone], the inhibition at 0.3 µg/mL in test [1] is 85.9%; in test [2], 94.4%.

As to `COc1ccc(/C=C2\N=C(c3cccs3)OC2=O)cc1` [4-((4-methoxyphenyl)methylene)-2-(2-thienyl)-5(4H)-oxazolone], the figures for the inhibition at 0.3 µg/mL in test [1] and in test [2] were 96.1% and 98.6%, respectively.

On to `O=C1OC(c2cccs2)=N/C1=C\c1cc(Cl)c2c(c1)OCCO2` [4-((8-Chloro-2,3-dihydro-1,4-benzodioxin-6-yl)methylene)-2-(2-thienyl)-5(4H)-oxazolone], for which the inhibition at 0.3 µg/mL came out at 76.7% in test [1] and 85.8% in test [2].

Take `COc1cc(OC)c(C=C2C(O)=Nc3ccccc32)c(OC)c1` [IC261]: in test [5], the “amount of Aβ40” value was “decreased” and the “amount of Aβ42” value was “decreased”. Further, the cell growth result in test [6] was “suppression of the cell growth was observed”. In test [4], the “growth of tumor cells” value was “significant effect of suppressing the growth of tumor cells”.

With `COc1cc(/C=C2\N=C(c3cccs3)OC2=O)ccn1` [Example 9, 4-((2-Methoxy-4-pyridinyl)methylene)-2-(2-thienyl)-5(4H)-oxazolone], the inhibition at 0.3 µg/mL was 60.5% in test [1] and 93.8% in test [2].

`Cc1cc(C2=N/C(=C\c3cccnc3)C(=O)O2)ccc1Br` [2-(4-Bromo-3-methylphenyl)-4-(3-pyridinylmethylene)-5(4H)-oxazolone]: the inhibition at 0.3 µg/mL was found to be 83.2% in test [1] and 97.8% in test [2].

Regarding `COc1cncc(/C=C2\N=C(c3ccc(C)s3)OC2=O)c1` [Example 1, 4-((5-Methoxy-3-pyridinyl)methylene)-2-(5-methyl-2-thienyl)-5(4H)-oxazolone], the inhibition at 0.3 µg/mL came to 82% in test [1] and 97.1% in test [2].
